In ChEMBL document CHEMBL1138745, “Structural basis for the potent antisickling effect of a novel class of five-membered heterocyclic aldehydic compounds” (2004):

What was measured:
Format in all cases: functional
Conditions in all cases: Homo sapiens
[1] = Percent inhibition of sickling of sickle red blood (SS) cells under 4% oxygen was evaluated at 2 mM concentration
[2] = Percent inhibition of sickling of sickle red blood (SS) cells under 4% oxygen was evaluated at 1 mM concentration
[3] = Percent inhibition of sickling of sickle red blood (SS) cells under 4% oxygen was evaluated at 5 mM concentration

Row | SMILES | inhibition at 2000 µM [1] [%] | inhibition at 1000 µM [2] [%] | inhibition at 5000 µM [3] [%]
1 | O=Cc1ccc(CO)o1 [AES-103] | 42 | 13 | 90
2 | O=Cc1ccco1 [FURFURAL] | 0 | 0 | 30
3 | COc1cc(C=O)ccc1O [VANILLIN] | – | – | 20
